We go through one compound from US20160220626A1, “REVERSAL OF INSULIN RESISTANCE AND DYSLIPIDEMIA IN HIGH-FAT DIET-INDUCED OBESE RAT MODELS BY PHYSALIS MINIMA L. EXTRACT” (priority 2015, published 2016).

Each structure is given as a SMILES string.

What all share (format): in vivo, male Wistar rats
Data set [1] has as its system high-fat diet-induced obese rats. Nature of the data set: Renal toxicity assessment after 12 weeks of treatment. The following applies: serum, 150 mg/kg, mean ± SE. The procedure: (§1) Extract supplementation. […] The HF fed rats were then sub-divided into four groups of three rats each, i.e. Group 1, negative control/pathological control, treated with distilled water; Group 2, positive control, treated with 150 mg/kg of standard drug metformin (Met); Groups 3 and 4, treated groups, received the P. minima extract at doses of 150 and 300 mg/kg, respectively. Normal control rats also received distilled water throughout the treatment for a period of 12 weeks. All the groups, except the control group, were on high-fat diet during the treatment period.
Blood and tissue collection and sample preparation. For biochemical analysis after 16 weeks of experimental diet, the blood samples were taken from the tail vein after an overnight fast, whereas after 12 weeks of treatment period, rats were subjected to anesthesia and blood was drawn by cardiac puncture. […]
Biochemical measurements. […] Fasting blood glucose levels were measured using glucometer (Accu Chek Performa, Australia). Fasting insulin levels were quantified using ultra sensitive rat insulin ELISA kit (Crystal Chem, Downers Grove, USA). Insulin sensitivity was evaluated using Homeostatic Model Assessment (HOMA). Serum total cholesterol, triglycerides, HDL, LDL, VLDL, urea, creatnine, AST, ALP, SGPT, and direct and total bilirubins were analysed using automatic analyser (Hitachi, Roche Diagnostics 902, Tokyo, Japan). […]

Data set [2] relates to insulin resistant high-fat diet-induced obese rats. The experiment in a line: Extract supplementation in insulin resistant high-fat diet-induced obese rats: body weight, food intake, lipid profile, insulin resistance. The procedure: as §1
Blood and tissue collection and sample preparation. For biochemical analysis after 16 weeks of experimental diet, the blood samples were taken from the tail vein after an overnight fast, whereas after 12 weeks of treatment period, rats were subjected to anesthesia and blood was drawn by cardiac puncture. Liver and pancreas samples were prepared and stained with hematoxylin and eosin, as described by Castro and co-workers. The liver was excised and fixed in buffered formalin. […]
Biochemical measurements. […] Fasting blood glucose levels were measured using glucometer (Accu Chek Performa, Australia). Fasting insulin levels were quantified using ultra sensitive rat insulin ELISA kit (Crystal Chem, Downers Grove, USA). Insulin sensitivity was evaluated using Homeostatic Model Assessment (HOMA).

The subject of data set [3] is high-fat diet-induced obese rats. Nature of the data set: Liver toxicity assessment after 12 weeks of treatment. The following applies: serum, 150 mg/kg, mean ± SE. The procedure:
as §1
(§2) Blood and tissue collection and sample preparation. For biochemical analysis after 16 weeks of experimental diet, the blood samples were taken from the tail vein after an overnight fast, whereas after 12 weeks of treatment period, rats were subjected to anesthesia and blood was drawn by cardiac puncture. Liver and pancreas samples were prepared and stained with hematoxylin and eosin, as described by Castro and co-workers. The liver was excised and fixed in buffered formalin. The sectioned liver tissue segments were stained with hematoxylin-eosin (H-E) and observed under light microscope.
Biochemical measurements. Blood glucose, serum insulin, total cholesterol, triglycerides, HDL, LDL, very low density lipoproteins ([…]), urea, creatnine, aspartate aminotransferase ([…]), alkaline phosphatase (ALP), serum glutamic pyruvic transaminase (SGPT), and direct and total bilirubin were estimated. Fasting blood glucose levels were measured using glucometer (Accu Chek Performa, Australia). Fasting insulin levels were quantified using ultra sensitive rat insulin ELISA kit (Crystal Chem, Downers Grove, USA). Insulin sensitivity was evaluated using Homeostatic Model Assessment (HOMA). Serum total cholesterol, triglycerides, HDL, LDL, VLDL, urea, creatnine, AST, ALP, SGPT, and direct and total bilirubins were analysed using automatic analyser (Hitachi, Roche Diagnostics 902, Tokyo, Japan).
Evaluation of renal and liver toxicity of P. minima extract: Serum urea, creatnine, aspartate aminotransferase ([…]), alkaline phosphatase (ALP), serum glutamic pyruvic transaminase (SGPT), and total and direct bilirubins were measured to evaluate the toxicity of P. minima towards liver and kidney.

The test system is the same in data set [4]. The experiment in a line: Histopathology of liver (H&E staining, light microscopy). The following applies: metformin 150 mg/kg; P. minima 150 and 300 mg/kg; versus pathological control (FIG. 8). As for the experimental part:
as §1, §2

As for `CN(C)C(=N)N=C(N)N` [Metformin], in data set [1], the Creatnine was 0.35 ± 0 mg/dL and the Urea came to 31 ± 0 mg/dL. Also, the “reduction in body weights” value in data set [2] (150 mg/kg daily, 12 weeks, on high-fat diet, pathological control gained about 109 g, control 75 g) is listed as approximately 35 g. The average food intake entry in data set [2] (supplemented groups, 12 weeks of treatment, high-fat diet rats) is “Decrease”. In data set [3], the ALP is listed as 49.5 ± 1.5 U/L, the “AST (aspartate aminotransferase)” value turned out to be 1.5 ± 0.5 U/L, the Direct bilirubin amounted to 0.02 ± 0 mg/dL and the SGPT amounted to 48.5 ± 1.5 U/L. Moreover, the Total bilirubin in data set [3] came to 0.275 ± 0.025 mg/dL. In addition, the “hepatic steatosis (liver morphology, H&E)” value in data set [4] is reported as “reversed the condition to the normal”.
